Data: BindingDB's records for patent US20240132480 (Cornell University, 2024)

Biological target: T1, Dihydrolipoyl dehydrogenase (Mycobacterium tuberculosis (strain ATCC 25618 / H37Rv), UniProt P9WHH9)
T1 sequence (P9WHH9 whole entry): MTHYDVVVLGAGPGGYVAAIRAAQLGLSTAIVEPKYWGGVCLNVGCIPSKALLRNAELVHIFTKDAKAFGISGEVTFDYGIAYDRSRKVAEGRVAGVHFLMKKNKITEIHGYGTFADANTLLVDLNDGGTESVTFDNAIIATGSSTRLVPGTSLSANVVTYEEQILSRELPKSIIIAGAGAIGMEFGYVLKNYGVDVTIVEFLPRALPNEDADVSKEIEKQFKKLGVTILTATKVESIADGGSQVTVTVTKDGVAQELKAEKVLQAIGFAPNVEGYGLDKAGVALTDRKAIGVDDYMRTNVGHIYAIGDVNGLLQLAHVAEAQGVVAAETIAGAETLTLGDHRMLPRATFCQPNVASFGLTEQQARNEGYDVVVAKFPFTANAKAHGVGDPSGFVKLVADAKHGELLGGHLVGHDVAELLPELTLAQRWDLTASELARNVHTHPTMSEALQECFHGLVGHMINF
Experiment: LPD Assay with 30 min preincubation

SMILES: CC#CCNC(=O)CN(C)S(=O)(=O)c1cc(C)cc2cc(C#N)[nH]c12 [US20240132480, Example 210]
- IC50: 38 nM
